Results reported in publication PMC6591251, “Discovery of potent necroptosis inhibitors targeting RIPK1 kinase activity for the treatment of inflammatory disorder and cancer metastasis” (Cell Death & Disease, 2019).

Key:
Test in all cases: RBC kinase panel
Assay type in all cases: biochemical
[1] = target: T1, ABL2/ARG (Homo sapiens, UniProt P42684); conditions: ATP 10 μM, Data1, Data2
T1 construct: purchased Reaction Biology Corporation
In short: (§1)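 The compound (1 μM) was tested in duplicate against each of 369 kinases of human origin, using 10 μM ATP throughout.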

[2] = target: T2, ALK1/ACVRL1 (Homo sapiens, UniProt P37023); conditions: ATP 10 μM, Data1, Data2
T2 construct: purchased Reaction Biology Corporation
In short: as §1

[3] = target: T3, BRSK2 (Homo sapiens, UniProt Q8IWQ3); conditions: ATP 10 μM, Data1, Data2
T3 construct: purchased Reaction Biology Corporation
In short: as §1

[4] = target: T4, CAMK4 (Homo sapiens, UniProt Q16566); conditions: ATP 10 μM, Data1, Data2
T4 construct: purchased Reaction Biology Corporation
In short: as §1

[5] = target: T5, CAMKK1 (Homo sapiens, UniProt Q8N5S9); conditions: ATP 10 μM, Data1, Data2
T5 construct: purchased Reaction Biology Corporation
In short: as §1

[6] = target: T6, CDK2/Cyclin A1 (Homo sapiens, UniProt P24941); conditions: ATP 10 μM, Data1, Data2
T6 construct: purchased Reaction Biology Corporation
In short: as §1

[7] = target: T7, CDK2/cyclin O (Homo sapiens, UniProt P24941); conditions: ATP 10 μM, Data1, Data2
T7 construct: purchased Reaction Biology Corporation
In short: as §1

[8] = target: T8, CDK9/cyclin T2 (Homo sapiens, UniProt P50750); conditions: ATP 10 μM, Data1, Data2
T8 construct: purchased Reaction Biology Corporation
In short: as §1

[9] = target: T9, CK1a1 (Homo sapiens, UniProt P48729); conditions: ATP 10 μM, Data1, Data2
T9 construct: purchased Reaction Biology Corporation
In short: as §1

[10] = target: T10, DCAMKL1 (Homo sapiens, UniProt O15075); conditions: ATP 10 μM, Data1, Data2
T10 construct: purchased Reaction Biology Corporation
In short: as §1

[11] = target: T11, DDR1 (Homo sapiens, UniProt Q08345); conditions: ATP 10 μM, Data1, Data2
T11 construct: purchased Reaction Biology Corporation
T11 sequence (Q08345 19-913): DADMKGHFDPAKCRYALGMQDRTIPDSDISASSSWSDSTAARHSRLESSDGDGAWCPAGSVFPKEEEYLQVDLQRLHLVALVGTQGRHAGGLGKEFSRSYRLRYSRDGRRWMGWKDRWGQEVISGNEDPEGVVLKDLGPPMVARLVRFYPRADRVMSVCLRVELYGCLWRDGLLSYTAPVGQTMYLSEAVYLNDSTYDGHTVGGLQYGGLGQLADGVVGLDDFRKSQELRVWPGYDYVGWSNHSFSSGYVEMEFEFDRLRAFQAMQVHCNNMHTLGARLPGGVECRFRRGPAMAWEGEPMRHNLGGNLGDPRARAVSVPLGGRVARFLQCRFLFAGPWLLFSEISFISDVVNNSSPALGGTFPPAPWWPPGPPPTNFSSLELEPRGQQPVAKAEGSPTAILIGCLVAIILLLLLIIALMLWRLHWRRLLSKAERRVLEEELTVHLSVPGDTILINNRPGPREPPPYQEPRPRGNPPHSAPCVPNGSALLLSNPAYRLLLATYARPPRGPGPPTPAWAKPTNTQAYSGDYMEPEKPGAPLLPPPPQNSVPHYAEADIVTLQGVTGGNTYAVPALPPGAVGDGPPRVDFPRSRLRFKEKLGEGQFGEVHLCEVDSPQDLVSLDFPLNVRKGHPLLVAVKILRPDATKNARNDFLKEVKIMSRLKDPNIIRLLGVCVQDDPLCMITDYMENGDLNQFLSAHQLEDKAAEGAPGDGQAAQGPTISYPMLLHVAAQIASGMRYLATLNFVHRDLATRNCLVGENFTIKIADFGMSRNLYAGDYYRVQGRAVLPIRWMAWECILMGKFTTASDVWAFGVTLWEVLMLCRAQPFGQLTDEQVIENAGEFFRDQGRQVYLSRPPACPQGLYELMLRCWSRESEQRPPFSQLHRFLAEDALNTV
In short: as §1

[12] = target: T12, DLK/MAP3K12 (Homo sapiens, UniProt Q12852); conditions: ATP 10 μM, Data1, Data2
T12 construct: purchased Reaction Biology Corporation
In short: as §1

[13] = target: T13, EPHA4 (Homo sapiens, UniProt P54764); conditions: ATP 10 μM, Data1, Data2
T13 construct: purchased Reaction Biology Corporation
In short: as §1

[14] = target: T14, ERN1/IRE1 (Homo sapiens, UniProt O75460); conditions: ATP 10 μM, Data1, Data2
T14 construct: purchased Reaction Biology Corporation
T14 sequence (O75460 19-977): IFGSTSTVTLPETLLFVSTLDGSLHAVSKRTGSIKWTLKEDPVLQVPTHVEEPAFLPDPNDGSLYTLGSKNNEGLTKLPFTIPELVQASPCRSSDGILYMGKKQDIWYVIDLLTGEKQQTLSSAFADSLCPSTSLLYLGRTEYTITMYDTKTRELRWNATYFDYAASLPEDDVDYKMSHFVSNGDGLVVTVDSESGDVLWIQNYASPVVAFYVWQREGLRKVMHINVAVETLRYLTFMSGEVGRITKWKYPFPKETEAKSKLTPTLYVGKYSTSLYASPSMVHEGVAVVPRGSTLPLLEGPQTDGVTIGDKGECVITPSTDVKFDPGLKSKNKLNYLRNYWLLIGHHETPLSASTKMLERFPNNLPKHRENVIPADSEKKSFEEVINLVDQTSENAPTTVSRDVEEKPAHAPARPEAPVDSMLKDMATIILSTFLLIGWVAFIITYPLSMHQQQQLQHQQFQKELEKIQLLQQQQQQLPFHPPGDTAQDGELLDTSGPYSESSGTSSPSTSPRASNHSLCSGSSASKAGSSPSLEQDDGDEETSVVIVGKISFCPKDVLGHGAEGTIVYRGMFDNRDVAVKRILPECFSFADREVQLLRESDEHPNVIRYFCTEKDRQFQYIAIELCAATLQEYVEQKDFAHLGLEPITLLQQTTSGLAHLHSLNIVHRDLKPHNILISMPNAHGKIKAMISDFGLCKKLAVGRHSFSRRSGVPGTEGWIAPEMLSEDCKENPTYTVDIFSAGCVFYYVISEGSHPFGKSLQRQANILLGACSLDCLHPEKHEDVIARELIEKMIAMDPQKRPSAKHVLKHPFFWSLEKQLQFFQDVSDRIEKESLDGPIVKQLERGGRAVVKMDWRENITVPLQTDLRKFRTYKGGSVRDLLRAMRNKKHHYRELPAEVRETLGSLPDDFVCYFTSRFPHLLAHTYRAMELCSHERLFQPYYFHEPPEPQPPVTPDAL
In short: as §1

[15] = target: T15, FGFR1 (Homo sapiens, UniProt P11362); conditions: ATP 10 μM, Data1, Data2
T15 construct: purchased Reaction Biology Corporation
In short: as §1

[16] = target: T16, LIMK2 (Homo sapiens, UniProt P53671)
T16 construct: purchased Reaction Biology Corporation
T16 sequence (P53671 whole entry): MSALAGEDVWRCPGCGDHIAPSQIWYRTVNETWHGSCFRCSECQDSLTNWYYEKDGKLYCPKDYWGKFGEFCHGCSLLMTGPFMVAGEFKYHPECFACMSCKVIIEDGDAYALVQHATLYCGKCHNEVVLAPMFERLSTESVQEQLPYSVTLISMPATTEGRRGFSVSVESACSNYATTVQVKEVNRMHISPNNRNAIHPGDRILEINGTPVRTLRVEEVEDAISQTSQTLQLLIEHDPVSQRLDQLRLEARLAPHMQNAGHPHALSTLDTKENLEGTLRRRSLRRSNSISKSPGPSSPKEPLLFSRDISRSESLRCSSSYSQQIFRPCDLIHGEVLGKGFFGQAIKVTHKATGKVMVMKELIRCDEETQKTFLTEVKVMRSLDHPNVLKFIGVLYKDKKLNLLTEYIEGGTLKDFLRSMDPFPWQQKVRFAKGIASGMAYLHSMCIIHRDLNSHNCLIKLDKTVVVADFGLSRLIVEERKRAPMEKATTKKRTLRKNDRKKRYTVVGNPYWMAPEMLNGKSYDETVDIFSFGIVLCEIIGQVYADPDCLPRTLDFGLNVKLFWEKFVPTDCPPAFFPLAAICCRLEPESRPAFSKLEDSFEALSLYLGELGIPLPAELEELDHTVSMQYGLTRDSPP
In short: as §1

[17] = target: T17, MAPKAPK2 (Homo sapiens, UniProt P49137); conditions: ATP 10 μM, Data1, Data2
T17 construct: purchased Reaction Biology Corporation
In short: as §1

[18] = target: T18, MAPKAPK5/PRAK (Homo sapiens, UniProt Q8IW41); conditions: ATP 10 μM, Data1, Data2
T18 construct: purchased Reaction Biology Corporation
In short: as §1

[19] = target: T19, MNK1 (Homo sapiens, UniProt Q9BUB5); conditions: ATP 10 μM, Data1, Data2
T19 construct: purchased Reaction Biology Corporation
In short: as §1

[20] = target: T20, NEK3 (Homo sapiens, UniProt P51956); conditions: ATP 10 μM, Data1, Data2
T20 construct: purchased Reaction Biology Corporation
T20 sequence (P51956 whole entry): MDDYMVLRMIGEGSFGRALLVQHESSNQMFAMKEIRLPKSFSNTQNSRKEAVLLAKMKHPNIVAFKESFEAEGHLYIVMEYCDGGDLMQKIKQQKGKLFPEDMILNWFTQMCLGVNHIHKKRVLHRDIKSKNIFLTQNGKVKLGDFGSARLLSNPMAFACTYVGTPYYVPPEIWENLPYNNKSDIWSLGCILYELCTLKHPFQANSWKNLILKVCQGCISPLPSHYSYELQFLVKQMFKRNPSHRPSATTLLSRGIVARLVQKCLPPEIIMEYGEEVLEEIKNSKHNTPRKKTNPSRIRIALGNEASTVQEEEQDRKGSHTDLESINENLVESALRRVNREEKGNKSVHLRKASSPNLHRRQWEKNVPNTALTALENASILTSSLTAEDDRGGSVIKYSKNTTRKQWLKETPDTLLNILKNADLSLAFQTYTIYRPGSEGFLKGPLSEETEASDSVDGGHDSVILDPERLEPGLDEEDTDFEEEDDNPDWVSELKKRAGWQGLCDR
In short: as §1

[21] = target: T21, NEK7 (Homo sapiens, UniProt Q8TDX7); conditions: ATP 10 μM, Data1, Data2
T21 construct: purchased Reaction Biology Corporation
In short: as §1

[22] = target: T22, PDGFRb (Homo sapiens, UniProt P09619); conditions: ATP 10 μM, Data1, Data2
T22 construct: purchased Reaction Biology Corporation
In short: as §1

[23] = target: T23, PEAK1 (Homo sapiens, UniProt Q9H792); conditions: ATP 10 μM, Data1, Data2
T23 construct: purchased Reaction Biology Corporation
In short: as §1

[24] = target: T24, PKAcb (Homo sapiens, UniProt P22694); conditions: ATP 10 μM, Data1, Data2
T24 construct: purchased Reaction Biology Corporation
In short: as §1

[25] = target: T25, PKCd (Homo sapiens, UniProt Q05655); conditions: ATP 10 μM, Data1, Data2
T25 construct: purchased Reaction Biology Corporation
In short: as §1

[26] = target: T26, ROS/ROS1 (Homo sapiens, UniProt P08922); conditions: ATP 10 μM, Data1, Data2
T26 construct: purchased Reaction Biology Corporation
In short: as §1

[27] = target: T27, RSK2 (Homo sapiens, UniProt P51812); conditions: ATP 10 μM, Data1, Data2
T27 construct: purchased Reaction Biology Corporation
In short: as §1

[28] = target: T28, SIK1 (Homo sapiens, UniProt P57059); conditions: ATP 10 μM, Data1, Data2
T28 construct: purchased Reaction Biology Corporation
In short: as §1

[29] = target: T29, SNRK (Homo sapiens, UniProt Q9NRH2); conditions: ATP 10 μM, Data1, Data2
T29 construct: purchased Reaction Biology Corporation
In short: as §1

[30] = target: T30, STK32C/YANK3 (Homo sapiens, UniProt Q86UX6); conditions: ATP 10 μM, Data1, Data2
T30 construct: purchased Reaction Biology Corporation
In short: as §1

[31] = target: T31, TRKC (Homo sapiens, UniProt Q16288)
T31 construct: purchased Reaction Biology Corporation
T31 sequence (Q16288 32-839): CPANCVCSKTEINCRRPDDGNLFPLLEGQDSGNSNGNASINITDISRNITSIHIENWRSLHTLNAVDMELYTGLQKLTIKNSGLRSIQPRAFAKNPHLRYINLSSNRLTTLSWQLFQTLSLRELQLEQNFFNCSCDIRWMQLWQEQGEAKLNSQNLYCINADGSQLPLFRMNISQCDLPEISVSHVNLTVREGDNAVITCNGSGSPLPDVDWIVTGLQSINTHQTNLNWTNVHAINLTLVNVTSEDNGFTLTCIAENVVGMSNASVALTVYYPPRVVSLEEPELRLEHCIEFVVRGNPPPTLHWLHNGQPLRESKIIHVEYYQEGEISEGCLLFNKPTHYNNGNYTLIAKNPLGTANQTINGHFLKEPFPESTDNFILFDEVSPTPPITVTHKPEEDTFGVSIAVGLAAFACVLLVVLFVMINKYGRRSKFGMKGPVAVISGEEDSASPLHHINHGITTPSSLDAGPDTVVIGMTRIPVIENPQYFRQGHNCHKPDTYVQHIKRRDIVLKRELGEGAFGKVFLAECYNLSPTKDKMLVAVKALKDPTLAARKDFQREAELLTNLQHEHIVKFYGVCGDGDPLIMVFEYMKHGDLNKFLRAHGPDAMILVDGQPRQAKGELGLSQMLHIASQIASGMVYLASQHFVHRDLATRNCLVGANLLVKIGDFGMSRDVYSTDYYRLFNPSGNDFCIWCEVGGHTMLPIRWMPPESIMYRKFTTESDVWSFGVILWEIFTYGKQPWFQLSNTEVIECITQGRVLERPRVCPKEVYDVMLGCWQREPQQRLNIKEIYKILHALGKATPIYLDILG
In short: as §1

[32] = target: T32, TSSK2 (Homo sapiens, UniProt Q96PF2); conditions: ATP 10 μM, Data1, Data2
T32 construct: purchased Reaction Biology Corporation
In short: as §1

T1 sequence (P42684 whole entry): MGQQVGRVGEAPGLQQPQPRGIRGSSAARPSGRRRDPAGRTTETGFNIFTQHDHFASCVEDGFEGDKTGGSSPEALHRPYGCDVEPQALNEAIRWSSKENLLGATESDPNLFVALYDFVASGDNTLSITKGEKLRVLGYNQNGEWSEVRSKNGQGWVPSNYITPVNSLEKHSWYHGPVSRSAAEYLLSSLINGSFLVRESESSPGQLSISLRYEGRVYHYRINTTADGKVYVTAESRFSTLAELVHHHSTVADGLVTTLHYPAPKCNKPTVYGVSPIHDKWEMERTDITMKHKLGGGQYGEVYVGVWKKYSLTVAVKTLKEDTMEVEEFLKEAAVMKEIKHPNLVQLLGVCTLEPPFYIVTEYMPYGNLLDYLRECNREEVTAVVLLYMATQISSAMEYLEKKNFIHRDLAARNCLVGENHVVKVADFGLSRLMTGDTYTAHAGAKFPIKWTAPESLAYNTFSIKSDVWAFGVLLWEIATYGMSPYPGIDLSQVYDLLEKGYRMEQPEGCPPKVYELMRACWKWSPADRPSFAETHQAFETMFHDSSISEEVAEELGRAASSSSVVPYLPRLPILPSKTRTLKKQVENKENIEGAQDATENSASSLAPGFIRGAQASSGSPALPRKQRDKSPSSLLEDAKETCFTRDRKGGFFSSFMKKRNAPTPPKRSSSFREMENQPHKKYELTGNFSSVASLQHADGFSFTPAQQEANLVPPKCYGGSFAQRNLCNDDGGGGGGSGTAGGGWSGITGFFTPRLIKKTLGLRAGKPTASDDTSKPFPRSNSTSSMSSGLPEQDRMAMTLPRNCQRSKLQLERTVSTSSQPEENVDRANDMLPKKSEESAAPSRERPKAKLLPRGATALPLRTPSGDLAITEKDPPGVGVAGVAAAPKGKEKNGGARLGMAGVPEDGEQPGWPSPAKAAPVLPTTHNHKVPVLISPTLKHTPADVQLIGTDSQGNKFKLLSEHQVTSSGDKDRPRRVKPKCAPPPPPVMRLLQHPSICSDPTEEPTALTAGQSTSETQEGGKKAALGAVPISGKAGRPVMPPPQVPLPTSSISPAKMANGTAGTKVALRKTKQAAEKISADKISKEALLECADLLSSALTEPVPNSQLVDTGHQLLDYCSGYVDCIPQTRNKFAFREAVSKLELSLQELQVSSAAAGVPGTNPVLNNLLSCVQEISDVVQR

CC(=O)Nc1nc2ccc(-c3cnc(C)c(NC(=O)OC4CCCCC4)c3)cc2s1 [PK68, cyclohexyl (5-(2-acetamidobenzo[d]thiazol-6-yl)-2-methylpyridin-3-yl)carbamate]
Activity% ([1]; 1 μM): 91.15% | activity at 1 µM [1]: 91.9% | Activity% ([2]; 1 μM): 91.76% | activity at 1 µM [2]: 95.2% | Activity% ([3]; 1 μM): 98.88% | activity at 1 µM [3]: 100% | Activity% ([4]; 1 μM): 84.49% | activity at 1 µM [4]: 84.8% | Activity% ([5]; 1 μM): 111.65% | activity at 1 µM [5]: 113% | Activity% ([6]; 1 μM): 96.71% | activity at 1 µM [6]: 98.5% | Activity% ([7]; 1 μM): 98.77% | activity at 1 µM [7]: 99.8% | Activity% ([8]; 1 μM): 88.23% | activity at 1 µM [8]: 90.7% | Activity% ([9]; 1 μM): 94.49% | activity at 1 µM [9]: 97% | Activity% ([10]; 1 μM): 87.59% | activity at 1 µM [10]: 87.7% | Activity% ([11]; 1 μM): 80.91% | activity at 1 µM [11]: 81.7% | Activity% ([12]; 1 μM): 94.64% | activity at 1 µM [12]: 103% | Activity% ([13]; 1 μM): 92.78% | activity at 1 µM [13]: 92.8% | Activity% ([14]; 1 μM): 88.33% | activity at 1 µM [14]: 88.7% | Activity% ([15]; 1 μM): 104.83% | activity at 1 µM [15]: 105% | Activity% ([16]; 1 μM, ATP 10 μM, Data1, Data2): 42.64% | activity at 1 µM ([16]; 1 μM, ATP 10 μM, Data1, Data2): 44% | inhibition at 1 µM ([16]; at 1000 nM): > 50% | Activity% ([17]; 1 μM): 100.37% | activity at 1 µM [17]: 101% | Activity% ([18]; 1 μM): 97.02% | activity at 1 µM [18]: 97% | Activity% ([19]; 1 μM): 99.13% | activity at 1 µM [19]: 100% | Activity% ([20]; 1 μM): 116.50% | activity at 1 µM [20]: 119% | Activity% ([21]; 1 μM): 103.37% | activity at 1 µM [21]: 105% | Activity% ([22]; 1 μM): 75.13% | activity at 1 µM [22]: 76.7% | Activity% ([23]; 1 μM): 100.13% | activity at 1 µM [23]: 103% | Activity% ([24]; 1 μM): 100.88% | activity at 1 µM [24]: 103% | Activity% ([25]; 1 μM): 100.58% | activity at 1 µM [25]: 101% | Activity% ([26]; 1 μM): 88.56% | activity at 1 µM [26]: 88.9% | Activity% ([27]; 1 μM): 90.87% | activity at 1 µM [27]: 92.3% | Activity% ([28]; 1 μM): 97.74% | activity at 1 µM [28]: 98.4% | Activity% ([29]; 1 μM): 90.23% | activity at 1 µM [29]: 94.9% | Activity% ([30]; 1 μM): 100.29% | activity at 1 µM [30]: 101% | Activity% ([31]; 1 μM, ATP 10 μM, Data1, Data2): 33.96% | activity at 1 µM ([31]; 1 μM, ATP 10 μM, Data1, Data2): 35.4% | inhibition at 1 µM ([31]; at 1000 nM): > 50% | Activity% ([32]; 1 μM): 97.17% | activity at 1 µM [32]: 98.1%
